Data on five molecules can be found in patent US9623012B2, “Formulation comprising benzothiazolone compound” (priority 2013, dated 2017).

Each structure is given as a SMILES string. pEC50: −log10 of the molar value. Counter-ions that a name gives are not always drawn.

Broadly, the pEC50 is the EC50 on a negative log10 scale, so that one unit is a factor of ten. The term Emax denotes the maximal effect, on the per cent scale that the assay sets.

A short description of series [1]: Comparative solubility in H2O with pH adjustment. Format: physicochemical. The procedure: The relative solubilities of the free base form and the acetate and glycolate salt forms of Compound A were analysed and the results are show in the table below. Solutions were titrated with addition of HCl or NaOH for pH adjustment. The improved aqueous solubilities of the acetate and glycolate salt forms relative to the free base form of Compound A make the acetate and glycolate salts of Compound A more suitable for subcutaneous injection or infusion.

The subject of a further series is Male Wistar Han IGS rats. It is filed as in vivo. The conditions noted are these: rat, s.c. minipump 4 weeks; formoterol 0.003-0.03, Compound A 0.01-0.1 mg/kg/day.
Series [2] has as its system left atria from Dunkin Hartley Guinea pig. The experiment in a line: Left atrium contraction assay (Ricerca, Adrenergic beta1).
In the next series the test system is Wistar Han rats. The experiment in a line: Heart rate in vivo in rats after s.c. bolus. The conditions noted are these: rat, s.c. bolus up to 0.3 mg/kg. An excerpt:
Wistar Han (W-H) IGS (International Genetic Standard) rats (Crl:WI(Han)) were purchased from Charles River Laboratories. Femoral arterial and venous catheters were chronically implanted and exteriorized through a spring tether-swivel system and housed in specialized cages. Arterial catheter was connected to a pressure transducer to continuously measure pulse pressure, mean arterial pressure and heart rate, which was derived from the blood pressure signal, via a digital data acquisition system. Compounds were administered via s.c catheter implanted through the skin buttun. Values are expressed as means±SEM (n=3).

A further series concerns Rhesus monkeys. The experiment in a line: Heart rate in vivo in rhesus monkeys after s.c. bolus. To be noted: rhesus monkey, s.c. bolus up to 0.03 mg/kg. The procedure:
Rhesus monkeys, 24 females with body weight around 4 to 8 kg, were randomized into 4 groups of n=6. The animals were restrained on a chair up to 4 hours after single subcutaneous administration of compounds, and then returned to their pens. Heart rates were measured using a Surgivet V3304 device. Values are expressed as means±SEM (n=6).

The target in the next series is T1, human 5-HT2C receptor (Homo sapiens, UniProt P28335).
T1 construct: purchased Biosignal Packard, USA; host or cells: CHO cell membranes
T1 sequence (P28335 33-458): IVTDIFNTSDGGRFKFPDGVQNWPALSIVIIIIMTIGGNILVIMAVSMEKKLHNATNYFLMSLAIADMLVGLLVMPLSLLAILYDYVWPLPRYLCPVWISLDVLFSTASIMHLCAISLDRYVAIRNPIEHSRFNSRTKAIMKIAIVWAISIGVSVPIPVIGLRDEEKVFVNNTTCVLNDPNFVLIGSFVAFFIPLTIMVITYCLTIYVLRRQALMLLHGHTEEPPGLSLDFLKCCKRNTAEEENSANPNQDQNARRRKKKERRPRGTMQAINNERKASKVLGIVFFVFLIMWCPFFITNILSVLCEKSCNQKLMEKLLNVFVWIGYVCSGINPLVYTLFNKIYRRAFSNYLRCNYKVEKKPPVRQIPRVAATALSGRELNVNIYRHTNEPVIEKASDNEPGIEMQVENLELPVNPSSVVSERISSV
The experiment in a line: 3H-Mesulergine binding to hr5-HT2C CHO cell membranes. To be noted: 3H-Mesulergine 1 nM, kind of constant not given. The procedure:
Non-specific binding is evaluated in the presence of 1 μM Mesulergine. Fifty μL each of membrane, ligand and compound in a total volume of […] are incubated in 96-well plates for 60 min at 22° C. in a buffer containing 50 mM Tris, 0.1% ascorbic acid, 10 μM Pargyline, pH 7.7. The plates are filtrated, washed 3 times in ice-cold 50 mM Tris, dried and measured in Topcount.

Series [3] concerns the target T2, human adrenergic Alpha1A (α1A AR) (Homo sapiens, UniProt P35348).
T2 sequence (P35348 1-466): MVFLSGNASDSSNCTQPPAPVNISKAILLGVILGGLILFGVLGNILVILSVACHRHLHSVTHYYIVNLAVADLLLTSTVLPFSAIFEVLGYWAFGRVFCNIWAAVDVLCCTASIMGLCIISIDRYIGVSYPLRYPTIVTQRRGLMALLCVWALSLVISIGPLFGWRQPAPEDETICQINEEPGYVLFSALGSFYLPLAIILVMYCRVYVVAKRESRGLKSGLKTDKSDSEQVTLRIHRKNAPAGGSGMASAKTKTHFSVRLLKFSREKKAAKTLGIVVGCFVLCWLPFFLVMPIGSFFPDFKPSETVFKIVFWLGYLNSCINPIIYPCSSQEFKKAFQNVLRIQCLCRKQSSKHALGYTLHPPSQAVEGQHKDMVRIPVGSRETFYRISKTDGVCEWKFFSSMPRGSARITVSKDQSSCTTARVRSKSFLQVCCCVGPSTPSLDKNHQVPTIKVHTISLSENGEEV
The experiment in a line: Ca2+ FLIPR assay in human adrenergic Alpha1A CHO-K1 cell line (Test 1). Format: cell-based. To be noted: read-out: CHO cells EC50 α1A AR.
Description: Compounds acting as agonists induce a transient increase of intracellular calcium. This was recorded on the FLIPR system. A measurement of the signal baseline was first recorded every second for 2 minutes before the injection of the compounds. […] Low controls (unstimulated cells) were determined with the addition of 5 μL of assay buffer.

The target in series [4] is T3, Serotonin 5-HT2C receptor (Homo sapiens, UniProt P28335).
T3 construct: expressed in transfected cells; host or cells: CHO-K1 cells coexpressing mitochondrial apoaequorin and Gα16
T3 sequence (P28335 33-458): T1 sequence (P28335 33-458)
The series can be described thus: Aequorin agonist assay in CHO-K1 cells expressing Serotonin 5-HT2C. Format: cell-based. The conditions noted are these: aequorin luminescence, agonist mode.
Description: CHO-K1 cells coexpressing mitochondrial apoaequorin, recombinant Serotonin 5-HT2Cne and the promiscuous G protein Gα16, grown to mid-log phase in culture media without antibiotics were detached with PBS-EDTA, centrifuged and resuspended in assay buffer (DMEM/HAM's F12 with HEPES, without phenol red+0.1% BSA protease free) at a concentration of 1×10^6 cells/ml. Cells were incubated at room temperature for at least 4 h with coelenterazine h. […] For agonist testing, 50 μL of cell suspension were mixed with 50 μL of test or reference agonist in a 96-well plate. The resulting emission of light is recorded using Hamamatsu Functional Drug Screening System 6000 (FDSS 6000) luminometer. Agonist activity of test compound was expressed as a percentage of the activity of the reference agonist at its EC100 concentration.

In series [5] the target is human β2 adrenoceptor (β2 AR) (Homo sapiens, UniProt P07550). The series can be described thus: cAMP response in CHO cells stably transfected with human β2 adrenoceptor (Test 1).
The target in series [6] is human β1 adrenoceptor (β1 AR) (Homo sapiens, UniProt P08588). The series can be described thus: cAMP response in CHO cells stably transfected with human β1 adrenoceptor (Test 1).
Sequence of human β1 adrenoceptor (β1 AR) (P08588 whole entry): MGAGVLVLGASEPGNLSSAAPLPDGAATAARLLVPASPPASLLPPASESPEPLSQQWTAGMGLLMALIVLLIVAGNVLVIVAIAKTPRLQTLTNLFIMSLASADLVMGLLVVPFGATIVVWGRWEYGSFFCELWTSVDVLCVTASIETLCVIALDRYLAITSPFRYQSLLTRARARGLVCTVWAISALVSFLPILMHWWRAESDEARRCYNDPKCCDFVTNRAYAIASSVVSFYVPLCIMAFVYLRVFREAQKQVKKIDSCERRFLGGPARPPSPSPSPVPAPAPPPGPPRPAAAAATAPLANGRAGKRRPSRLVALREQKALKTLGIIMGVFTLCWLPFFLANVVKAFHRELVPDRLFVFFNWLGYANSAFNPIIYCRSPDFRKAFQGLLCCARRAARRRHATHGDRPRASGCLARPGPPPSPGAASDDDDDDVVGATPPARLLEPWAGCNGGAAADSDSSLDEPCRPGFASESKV

Sequence of human β2 adrenoceptor (β2 AR) (P07550 whole entry): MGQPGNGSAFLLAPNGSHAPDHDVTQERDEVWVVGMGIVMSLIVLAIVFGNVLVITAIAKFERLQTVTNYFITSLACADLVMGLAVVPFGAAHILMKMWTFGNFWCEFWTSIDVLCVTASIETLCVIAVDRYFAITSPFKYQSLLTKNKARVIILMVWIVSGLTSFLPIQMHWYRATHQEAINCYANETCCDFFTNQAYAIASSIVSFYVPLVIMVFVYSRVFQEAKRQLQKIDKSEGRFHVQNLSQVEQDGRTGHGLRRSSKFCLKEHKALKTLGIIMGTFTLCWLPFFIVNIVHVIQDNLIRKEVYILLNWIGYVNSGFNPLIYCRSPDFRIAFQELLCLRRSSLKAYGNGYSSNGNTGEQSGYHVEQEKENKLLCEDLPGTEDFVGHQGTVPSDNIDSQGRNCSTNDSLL
Description for Male Wistar Han IGS rats: Male Wistar Han IGS (International Genetic Standard) rats (Crl:WI(Han)) at the weight of 350-400 g were purchased from Charles River Laboratories. Rats were acclimated to the facility for 7 days. Animals were housed in groups of 3 animals at 25° C. with a 12:12 h light-dark cycle. They were fed a standard laboratory diet containing 18.2% protein and 3.0% fat with an energy content of 15.8 MJ/kg (NAFAG 3890, Kliba, Basel, Switzerland). Food and water were provided ad libitum. […] Pumps were filled with the solution and kept for several hours at 37° C. in PBS until surgical implantation. Rats were treated subcutaneously with Temgesic at a dose of 0.02 mg/kg with a volume of 1 ml/kg at least 30 minutes before surgery, and then the pumps filled with the solution indicated above were implanted subcutaneously into the back of the rats under anesthesia with isoflurane at a concentration of 3%. Temgesic was administered subcutaneously to the rats 24 h and 48 h after the surgery. Body weights were measured twice per week. Clips were removed 10 days after the surgery under anesthesia. Four weeks after the treatment, the rats were euthanized with CO2, and the tibialis anterior, gastrocnemius and soleus muscles, heart and brain were dissected and weighed. Brain weight was used for normalization of organ weights. Results are expressed as mean +/−SEM. […]

With `CCCCOc1ccc(CC(C)(C)NC[C@H](O)c2cc(O)cc3[nH]c(=O)sc23)cc1` [Compound A, (R)-7-(2-(1-(4-butoxyphenyl)-2-methylpropan-2-ylamino)-1-hydroxyethyl)-5-hydroxybenzo[d]thiazol-2(3H)-one], the “solubility in H2O, Conc” value in series [1] (pH 7.3) and in series [1] (pH 7.8) was below 10 µg/mL in each case. Besides, the “skeletal muscle mass and heart mass increase (FIG. 1)” value with Male Wistar Han IGS rats is “induces skeletal muscle hypertrophy with minimum impact on heart mass”. In series [2] (Cavia porcellus, guinea pig left atria, n = 2), this molecule gave a pEC50 below 5.00. The “effects on left atrium contraction” value in series [2] (up to 10 μM) was “no effects”. In addition, the heart rate increase result with Wistar Han rats is “less heart rate increases compared to formoterol”; in the series on Rhesus monkeys, “less heart rate increase compared to formoterol”. Moreover, the “Serotonin 5-HT2C Binding” value at human 5-HT2C receptor turned out to be 11 µM.
For the molecule `CCCCOc1ccc(CC(C)(C)NC[C@@H](O)c2cc(O)cc3[nH]c(=O)sc23)cc1` [Compound B (S)], the pEC50 in [3] was below 4.52; in series [4], 7.71; in [5], 6.02; in series [6] it was below 5.00. For the same molecule, the “Serotonin 5-HT2C Binding” value at human 5-HT2C receptor came out at 0.8 µM.
Take `CCCCOc1ccc(CC(C)(C)NC[C@H](O)c2cc(O)cc3[nH]c(=O)sc23)cc1.O=C(O)CO` [Compound A glycolate salt]: the entries for the “solubility in H2O, Conc” value in series [1] (pH 5.1), in [1] (pH 5.3) and in series [1] (pH 5.4) were 13100 µg/mL, 6390 µg/mL and 4470 µg/mL, respectively.
Turning to `CCCCOc1ccc(CC(C)(C)NC[C@H](O)c2cc(O)cc3[nH]c(=O)sc23)cc1` [Compound A (R) acetate salt, (R)-7-(2-(1-(4-butoxyphenyl)-2-methylpropan-2-ylamino)-1-hydroxyethyl)-5-hydroxybenzo[d]thiazol-2(3H)-one acetate salt], the maximal response (Emax) in series [5] (CHO, read-out: CHO cells Emax % β2 AR, cAMP, compared to isoprenaline) was found to be 91%.
In the case of `CCCCOc1ccc(CC(C)(C)NCC(O)c2cc(O)cc3[nH]c(=O)sc23)cc1` (racemic) [Compound A/B], at human 5-HT2C receptor, the “Serotonin 5-HT2C Binding” value stood at 1.7 µM. Moreover, the pEC50 in series [4] is 7.60; in series [5], 7.96; in series [6], 6.16.
